Results reported in ChEMBL document CHEMBL5465560, “Selectivity Literature for EUbOPEN Chemogenomic Library” (2024).

Legend:
[1] = target: Cyclin-dependent kinase 14 (Homo sapiens) (UniProt O94921); experiment: Selectivity interaction (KinomeScan (DiscoverX)) EUB0000229b CDK14; conditions: at 10 µM
[2] = target: Cyclin-dependent kinase-like 1 (Homo sapiens) (UniProt Q00532); experiment: Selectivity interaction (KinomeScan (DiscoverX)) EUB0001079a CDKL1; conditions: at 1 µM
[3] = target: Platelet-derived growth factor receptor beta (Homo sapiens, UniProt P09619); conditions: at 10 µM
[4] = target: T1, MAP kinase-activated protein kinase 5 (Homo sapiens) (UniProt Q8IW41); conditions: at 10 µM
T1 sequence (whole entry): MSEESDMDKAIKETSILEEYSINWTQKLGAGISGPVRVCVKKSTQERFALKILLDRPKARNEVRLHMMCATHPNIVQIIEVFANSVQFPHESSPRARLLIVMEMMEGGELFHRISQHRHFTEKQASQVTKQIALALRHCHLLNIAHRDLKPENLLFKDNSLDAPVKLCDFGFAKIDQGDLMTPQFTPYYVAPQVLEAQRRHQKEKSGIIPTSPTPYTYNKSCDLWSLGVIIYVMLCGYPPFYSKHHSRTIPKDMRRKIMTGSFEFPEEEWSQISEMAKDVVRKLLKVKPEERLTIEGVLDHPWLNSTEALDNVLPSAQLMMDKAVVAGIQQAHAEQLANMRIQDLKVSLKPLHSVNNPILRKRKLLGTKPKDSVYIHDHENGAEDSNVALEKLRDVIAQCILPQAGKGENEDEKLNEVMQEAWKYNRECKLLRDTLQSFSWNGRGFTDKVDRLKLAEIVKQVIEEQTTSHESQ

[5] = target: DNA-dependent protein kinase catalytic subunit (Homo sapiens) (UniProt P78527); experiment: Selectivity interaction (ActivX KiNativ screen (kinase selectivity in THP-1 cell lysates)) EUB0000639a PRKDC; format: subcellular; conditions: lysate
DNA-dependent protein kinase catalytic subunit (Homo sapiens), sequence (P78527 whole entry): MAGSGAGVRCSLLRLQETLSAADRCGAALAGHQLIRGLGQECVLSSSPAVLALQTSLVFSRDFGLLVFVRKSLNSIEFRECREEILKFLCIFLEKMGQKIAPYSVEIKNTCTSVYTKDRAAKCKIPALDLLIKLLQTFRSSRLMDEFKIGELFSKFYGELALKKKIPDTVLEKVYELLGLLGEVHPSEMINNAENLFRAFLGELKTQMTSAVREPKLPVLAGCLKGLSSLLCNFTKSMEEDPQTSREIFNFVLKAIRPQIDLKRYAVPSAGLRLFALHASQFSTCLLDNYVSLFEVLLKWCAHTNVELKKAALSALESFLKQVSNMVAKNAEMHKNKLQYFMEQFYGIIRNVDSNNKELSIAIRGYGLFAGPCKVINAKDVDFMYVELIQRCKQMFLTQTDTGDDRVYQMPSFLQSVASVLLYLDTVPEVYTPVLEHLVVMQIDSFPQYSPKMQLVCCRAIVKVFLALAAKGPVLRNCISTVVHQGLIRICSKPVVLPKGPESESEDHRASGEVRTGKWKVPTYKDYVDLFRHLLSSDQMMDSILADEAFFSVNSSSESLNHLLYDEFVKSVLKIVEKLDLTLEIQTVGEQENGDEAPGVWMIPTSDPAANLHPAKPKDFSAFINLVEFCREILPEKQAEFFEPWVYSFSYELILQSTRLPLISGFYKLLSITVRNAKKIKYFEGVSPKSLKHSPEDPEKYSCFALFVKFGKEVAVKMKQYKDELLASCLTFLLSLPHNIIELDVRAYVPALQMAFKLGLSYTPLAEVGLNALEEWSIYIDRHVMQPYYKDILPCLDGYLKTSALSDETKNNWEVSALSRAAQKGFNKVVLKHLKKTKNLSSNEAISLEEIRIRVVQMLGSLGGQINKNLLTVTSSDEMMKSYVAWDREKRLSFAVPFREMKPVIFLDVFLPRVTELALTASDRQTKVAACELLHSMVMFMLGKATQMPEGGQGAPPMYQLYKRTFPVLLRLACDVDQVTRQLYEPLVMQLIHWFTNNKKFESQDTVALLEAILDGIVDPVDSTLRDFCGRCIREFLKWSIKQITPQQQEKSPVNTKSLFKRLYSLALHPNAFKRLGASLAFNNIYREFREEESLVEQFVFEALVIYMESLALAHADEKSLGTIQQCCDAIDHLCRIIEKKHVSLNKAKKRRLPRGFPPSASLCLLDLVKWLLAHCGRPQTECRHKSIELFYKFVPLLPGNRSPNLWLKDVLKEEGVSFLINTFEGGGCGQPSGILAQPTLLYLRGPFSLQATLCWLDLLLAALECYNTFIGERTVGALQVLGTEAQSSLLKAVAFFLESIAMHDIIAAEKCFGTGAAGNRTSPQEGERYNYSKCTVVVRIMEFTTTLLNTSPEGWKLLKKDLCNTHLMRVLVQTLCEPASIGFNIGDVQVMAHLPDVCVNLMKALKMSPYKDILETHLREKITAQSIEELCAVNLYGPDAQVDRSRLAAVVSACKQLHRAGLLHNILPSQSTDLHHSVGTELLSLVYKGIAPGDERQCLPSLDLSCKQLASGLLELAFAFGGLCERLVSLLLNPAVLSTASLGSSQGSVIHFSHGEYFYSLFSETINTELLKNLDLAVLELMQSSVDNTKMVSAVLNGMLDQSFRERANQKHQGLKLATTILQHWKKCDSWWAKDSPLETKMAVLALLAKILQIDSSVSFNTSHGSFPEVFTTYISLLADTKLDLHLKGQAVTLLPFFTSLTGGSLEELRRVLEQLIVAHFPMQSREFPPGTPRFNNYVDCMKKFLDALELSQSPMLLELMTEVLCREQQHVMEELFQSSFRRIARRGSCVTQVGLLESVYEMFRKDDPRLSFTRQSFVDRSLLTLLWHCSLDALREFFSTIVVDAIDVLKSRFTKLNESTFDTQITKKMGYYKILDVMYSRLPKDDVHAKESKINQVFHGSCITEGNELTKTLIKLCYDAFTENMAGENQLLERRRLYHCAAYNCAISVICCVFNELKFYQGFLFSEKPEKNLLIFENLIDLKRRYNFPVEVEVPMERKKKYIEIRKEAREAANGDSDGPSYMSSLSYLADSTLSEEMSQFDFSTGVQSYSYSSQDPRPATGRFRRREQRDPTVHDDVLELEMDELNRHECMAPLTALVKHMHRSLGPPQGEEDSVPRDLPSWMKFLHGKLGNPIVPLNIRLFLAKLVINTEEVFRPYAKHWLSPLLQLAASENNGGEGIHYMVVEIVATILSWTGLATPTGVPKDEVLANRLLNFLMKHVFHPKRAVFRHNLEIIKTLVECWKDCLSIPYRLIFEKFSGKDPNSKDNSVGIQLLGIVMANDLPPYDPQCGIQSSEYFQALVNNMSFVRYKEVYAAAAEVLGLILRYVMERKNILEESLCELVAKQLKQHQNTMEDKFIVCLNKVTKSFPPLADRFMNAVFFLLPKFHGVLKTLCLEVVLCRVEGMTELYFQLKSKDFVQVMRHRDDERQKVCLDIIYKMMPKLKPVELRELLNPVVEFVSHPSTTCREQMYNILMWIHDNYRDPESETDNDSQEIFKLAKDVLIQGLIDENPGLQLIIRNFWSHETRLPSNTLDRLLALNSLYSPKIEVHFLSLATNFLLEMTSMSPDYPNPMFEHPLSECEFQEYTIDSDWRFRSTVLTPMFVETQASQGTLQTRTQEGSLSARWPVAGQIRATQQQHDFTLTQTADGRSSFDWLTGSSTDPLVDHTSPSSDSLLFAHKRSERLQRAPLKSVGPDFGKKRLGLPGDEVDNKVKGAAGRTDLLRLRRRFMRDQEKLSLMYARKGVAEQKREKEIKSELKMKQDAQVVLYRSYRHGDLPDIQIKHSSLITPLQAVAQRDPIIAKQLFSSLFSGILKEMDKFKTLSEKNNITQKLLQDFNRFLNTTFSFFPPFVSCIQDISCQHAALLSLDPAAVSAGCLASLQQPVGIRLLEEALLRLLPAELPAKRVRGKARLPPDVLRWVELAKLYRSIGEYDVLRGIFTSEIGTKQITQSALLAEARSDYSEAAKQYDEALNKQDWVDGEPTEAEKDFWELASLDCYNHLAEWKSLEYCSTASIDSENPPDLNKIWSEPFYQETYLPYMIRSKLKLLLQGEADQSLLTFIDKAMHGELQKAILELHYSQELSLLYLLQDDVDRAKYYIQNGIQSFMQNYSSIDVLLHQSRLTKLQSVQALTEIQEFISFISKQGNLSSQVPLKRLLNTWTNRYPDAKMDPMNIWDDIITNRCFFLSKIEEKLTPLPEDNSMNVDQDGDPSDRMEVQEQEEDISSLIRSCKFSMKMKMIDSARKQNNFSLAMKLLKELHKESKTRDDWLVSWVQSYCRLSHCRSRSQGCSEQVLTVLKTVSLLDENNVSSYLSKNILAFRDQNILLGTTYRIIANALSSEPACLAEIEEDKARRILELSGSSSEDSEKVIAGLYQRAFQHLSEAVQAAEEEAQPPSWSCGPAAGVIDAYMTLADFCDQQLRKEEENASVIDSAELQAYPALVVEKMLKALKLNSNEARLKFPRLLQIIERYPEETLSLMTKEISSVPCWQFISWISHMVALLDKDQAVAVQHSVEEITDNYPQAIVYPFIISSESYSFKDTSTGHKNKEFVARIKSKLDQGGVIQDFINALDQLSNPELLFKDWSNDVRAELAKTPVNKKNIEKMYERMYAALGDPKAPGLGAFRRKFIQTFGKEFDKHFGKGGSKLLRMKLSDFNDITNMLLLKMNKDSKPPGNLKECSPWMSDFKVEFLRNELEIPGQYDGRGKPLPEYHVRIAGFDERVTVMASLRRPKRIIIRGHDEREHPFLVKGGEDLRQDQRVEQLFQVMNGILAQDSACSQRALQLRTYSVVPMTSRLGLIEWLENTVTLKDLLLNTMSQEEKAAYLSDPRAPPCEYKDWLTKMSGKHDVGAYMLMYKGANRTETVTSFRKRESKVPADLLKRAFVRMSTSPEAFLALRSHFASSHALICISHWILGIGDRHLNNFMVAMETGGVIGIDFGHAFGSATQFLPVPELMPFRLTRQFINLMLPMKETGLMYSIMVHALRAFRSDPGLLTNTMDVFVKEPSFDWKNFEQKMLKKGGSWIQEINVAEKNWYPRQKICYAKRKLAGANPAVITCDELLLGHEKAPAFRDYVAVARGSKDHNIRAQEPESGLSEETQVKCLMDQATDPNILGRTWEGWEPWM

[6] = target: Putative phosphatidylinositol 4-kinase alpha-like protein P2 (Homo sapiens) (UniProt A4QPH2); experiment: Selectivity interaction (ActivX KiNativ screen (kinase selectivity in THP-1 cell lysates)) EUB0000639a PI4KAP2; format: subcellular; conditions: lysate
Putative phosphatidylinositol 4-kinase alpha-like protein P2 (Homo sapiens), sequence (A4QPH2 whole entry): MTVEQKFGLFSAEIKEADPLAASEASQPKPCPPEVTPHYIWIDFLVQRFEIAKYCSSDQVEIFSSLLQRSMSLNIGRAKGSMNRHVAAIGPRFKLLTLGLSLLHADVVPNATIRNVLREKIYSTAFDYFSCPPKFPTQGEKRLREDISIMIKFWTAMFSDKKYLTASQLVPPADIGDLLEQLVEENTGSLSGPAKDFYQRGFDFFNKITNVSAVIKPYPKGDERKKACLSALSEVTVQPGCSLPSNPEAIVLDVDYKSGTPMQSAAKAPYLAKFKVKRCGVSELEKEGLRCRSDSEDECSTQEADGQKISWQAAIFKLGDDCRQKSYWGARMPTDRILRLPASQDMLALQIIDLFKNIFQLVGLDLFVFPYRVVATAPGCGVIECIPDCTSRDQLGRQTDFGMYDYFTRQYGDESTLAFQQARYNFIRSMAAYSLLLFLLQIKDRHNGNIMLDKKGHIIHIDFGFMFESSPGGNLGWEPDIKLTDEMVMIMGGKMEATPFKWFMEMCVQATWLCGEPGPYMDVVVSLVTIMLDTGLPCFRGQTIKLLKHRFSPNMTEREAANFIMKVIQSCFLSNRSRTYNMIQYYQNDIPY

[7] = target: 5'-AMP-activated protein kinase catalytic subunit alpha-1 (Homo sapiens, UniProt Q13131); experiment: Selectivity interaction (KinomeScan (DiscoverX)) EUB0001049a PRKAA1; conditions: at 1 µM
[8] = target: Serine/threonine-protein kinase PAK 1 (Homo sapiens) (UniProt Q13153); experiment: Selectivity interaction (KinomeScan (DiscoverX)) EUB0000045b PAK1
[9] = target: T2, Serine/threonine-protein kinase TAO2 (Homo sapiens) (UniProt Q9UL54); experiment: Selectivity interaction (KinomeScan (DiscoverX)) EUB0000618a TAOK2; conditions: at 10 µM
T2 sequence (whole entry): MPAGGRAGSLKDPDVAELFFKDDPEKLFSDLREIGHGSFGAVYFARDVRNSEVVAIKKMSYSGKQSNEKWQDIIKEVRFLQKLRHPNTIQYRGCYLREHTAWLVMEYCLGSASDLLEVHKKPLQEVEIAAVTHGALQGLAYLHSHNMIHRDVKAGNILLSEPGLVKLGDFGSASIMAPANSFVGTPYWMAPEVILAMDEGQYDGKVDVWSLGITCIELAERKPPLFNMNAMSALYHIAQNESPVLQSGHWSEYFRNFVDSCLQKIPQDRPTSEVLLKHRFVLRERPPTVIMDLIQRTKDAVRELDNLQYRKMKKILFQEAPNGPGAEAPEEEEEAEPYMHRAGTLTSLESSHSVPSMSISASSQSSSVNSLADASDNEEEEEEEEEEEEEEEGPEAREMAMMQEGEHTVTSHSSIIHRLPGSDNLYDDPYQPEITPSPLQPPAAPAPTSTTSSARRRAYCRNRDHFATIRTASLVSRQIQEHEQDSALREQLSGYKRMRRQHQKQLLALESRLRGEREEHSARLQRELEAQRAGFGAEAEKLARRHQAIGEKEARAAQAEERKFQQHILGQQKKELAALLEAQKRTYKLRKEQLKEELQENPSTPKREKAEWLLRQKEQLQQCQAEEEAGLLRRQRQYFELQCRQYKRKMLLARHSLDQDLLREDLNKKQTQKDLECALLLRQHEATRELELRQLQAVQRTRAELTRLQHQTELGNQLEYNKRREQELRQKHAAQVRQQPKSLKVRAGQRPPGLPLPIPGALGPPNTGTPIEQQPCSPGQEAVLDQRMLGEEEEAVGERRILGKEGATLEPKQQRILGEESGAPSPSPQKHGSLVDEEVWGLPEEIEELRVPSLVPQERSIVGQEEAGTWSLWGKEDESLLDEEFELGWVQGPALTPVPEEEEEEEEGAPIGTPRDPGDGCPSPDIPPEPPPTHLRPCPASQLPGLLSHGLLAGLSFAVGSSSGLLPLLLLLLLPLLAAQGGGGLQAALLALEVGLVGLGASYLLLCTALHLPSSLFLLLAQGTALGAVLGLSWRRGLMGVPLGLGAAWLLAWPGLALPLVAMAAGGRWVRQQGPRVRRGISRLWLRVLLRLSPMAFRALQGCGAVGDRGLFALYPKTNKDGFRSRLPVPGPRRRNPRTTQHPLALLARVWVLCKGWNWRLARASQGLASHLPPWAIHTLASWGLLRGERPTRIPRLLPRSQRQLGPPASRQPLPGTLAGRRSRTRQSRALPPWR

[10] = target: T3, Serine/threonine-protein kinase ULK3 (Homo sapiens) (UniProt Q6PHR2); experiment: Selectivity interaction (ActivX KiNativ screen (ex vivo kinase selectivity in human PBMCs)) EUB0001619a ULK3; format: cell-based; conditions: PBMC, at 1 µM
T3 sequence (whole entry): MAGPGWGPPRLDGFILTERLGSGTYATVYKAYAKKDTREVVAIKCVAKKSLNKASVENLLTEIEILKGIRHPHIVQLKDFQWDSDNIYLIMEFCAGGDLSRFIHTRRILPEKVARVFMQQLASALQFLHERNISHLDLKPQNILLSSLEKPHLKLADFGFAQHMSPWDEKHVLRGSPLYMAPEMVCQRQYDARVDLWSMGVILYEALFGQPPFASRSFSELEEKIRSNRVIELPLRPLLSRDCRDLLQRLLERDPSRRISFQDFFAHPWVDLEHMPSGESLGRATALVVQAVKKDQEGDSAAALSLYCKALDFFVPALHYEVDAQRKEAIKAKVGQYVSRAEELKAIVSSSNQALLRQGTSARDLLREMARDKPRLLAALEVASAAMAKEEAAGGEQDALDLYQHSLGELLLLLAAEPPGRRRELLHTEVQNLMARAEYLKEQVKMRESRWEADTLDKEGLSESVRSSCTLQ

Cyclin-dependent kinase-like 1 (Homo sapiens), sequence (Q00532 whole entry): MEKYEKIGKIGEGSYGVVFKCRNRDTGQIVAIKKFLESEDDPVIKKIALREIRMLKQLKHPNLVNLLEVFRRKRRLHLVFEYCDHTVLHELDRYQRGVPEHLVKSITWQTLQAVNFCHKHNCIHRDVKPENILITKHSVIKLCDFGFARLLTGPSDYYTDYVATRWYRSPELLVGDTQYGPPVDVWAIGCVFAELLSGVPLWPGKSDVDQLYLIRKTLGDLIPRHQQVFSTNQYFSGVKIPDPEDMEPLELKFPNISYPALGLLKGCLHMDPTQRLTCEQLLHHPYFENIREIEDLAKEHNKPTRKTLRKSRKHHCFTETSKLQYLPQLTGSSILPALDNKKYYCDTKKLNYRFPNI

Q: With COc1cc(N(C)c2ccnc3ccc(C(F)(F)F)cc23)cc(OC)c1OC as the compound, how does the % binding [1] read?
A: 92%

Q: How did the % of control [2] turn out when Nc1cnc(N2CCc3cc(S(=O)(=O)Nc4c(F)cc(Cl)cc4F)cc(N4CCCC4=O)c32)nc1 [TP-020n] was run?
A: 85%

Q: Cc1cc([C@@H](C)Nc2ccccc2C(=O)O)c2nc(N3CCOCC3)cc(=O)n2c1 [AZD-6482] was tested. Which % of control [3] did it give?
A: 100%

Q: What about the % of control [4] of the same compound?
A: 100%

Q: For CC[C@@H]1[C@H](F)C(=O)N[C@@H]1COc1nccc2cc(C(N)=O)c(OC)cc12 [ZIMLOVISERTIB], which % of inhibition ([5]; at 0.01 µM) is on record?
A: -17.9%

Q: And the % of inhibition ([5]; at 0.04 µM)?
A: -5.4%

Q: What about the % of inhibition ([5]; at 0.2 µM) of the same compound?
A: 5%

Q: What about the % of inhibition ([5]; at 1 µM) of the same compound?
A: 12.5%

Q: And the % of inhibition ([5]; at 5 µM)?
A: -1.4%

Q: And the % of inhibition ([6]; at 0.01 µM)?
A: 7.2%

Q: And the % of inhibition ([6]; at 0.04 µM)?
A: -7.1%

Q: What about the % of inhibition ([6]; at 0.2 µM) of the same compound?
A: -24.4%

Q: And the % of inhibition ([6]; at 1 µM)?
A: -6%

Q: What about the % of inhibition ([6]; at 5 µM) of the same compound?
A: 38.5%

Q: How did the % of control [7] turn out when COc1cc(Nc2nc(C)cc(-c3cnn4nc(OC)ccc34)n2)cc(C(F)(F)F)c1 was run?
A: 87%

Q: Which results are given for C=CC(=O)Nc1cc(-n2c(=O)ccc3cnc4ccc(-c5ccc(NS(C)(=O)=O)cc5)cc4c32)ccc1C?
A: % of control ([8]; at 1 µM): 86%; % of control ([8]; at 10 µM): 62%

Q: How did the % of control [9] turn out when O[C@H]1CC[C@H](Nc2ncc3nc(Nc4c(F)cc(F)cc4F)n([C@H]4CCOC4)c3n2)CC1 was run?
A: 93%

Q: N#Cc1cccc(-c2c[nH]c3ncnc(N4CCOCC4)c23)c1 was tested. Which % of inhibition [10] did it give?
A: 5%
